In patent US20230230698A1, “ANTIMICROBIAL CHOICE ALGORITHM FOR URINARY TRACT INFECTIONS” (Northwestern University, priority 2020, published 2023):
Read-outs that look alike come from different tables or passages of the source.

Key:
[1] = tested on: uropathogen; test: Resistance in community acquired UTIs, uncomplicated and complicated combined; assay type: cell-based; conditions: 2018
Description: The prevalence of resistance for patients with complicated UTIs was compared to data from our previous publication for uncomplicated UTIs and available hospital data^17. The prevalence of resistance by ZIP code for the complicated UTI population was then compared between each antibiotic and to the distribution of prevalence by ZIP code for the uncomplicated population for the previous study, for CIP, SXT and NIT (the three antimicrobials evaluated in the previous study)^17.

[2] = tested on: uropathogen; conditions: 2018, both inpatient and outpatient cultures; cited from earlier work
[3] = tested on: uropathogen; test: Urine culture antimicrobial susceptibility (Vitek 2), women outpatients with uncomplicated UTI; assay type: cell-based; conditions: for Overall prevalence of resistance / proportion of patients resistant: uncomplicated UTI; for Overall prevalence of resistance: 2011-2017 cohort, 9,455 positive cultures (>=10^3 CFU/mL), resistant or intermediate susceptibility; for proportion of patients resistant: 2018 testing cohort, 1,427 women, Chicago ZIP code; for proportion with culture susceptible, theoretical scenario of all patients receiving the drug / proportion with culture susceptible if everyone was prescribed the drug: 2018 cohort; for proportion with culture susceptible, theoretical scenario of all patients receiving the drug: 258 patients with prior microbiologic data; for proportion with culture susceptible, theoretical scenario of all patients being prescribed the drug: 2018 cohort, 1,169 patients without prior microbiologic data; for proportion with culture susceptible if everyone was prescribed the drug: all 1,427 patients
Description: Data were obtained from the Northwestern Medicine Enterprise Data Warehouse, which is a data integration warehouse designed for research and clinical operations. […] Cultures were included in analysis if positive (identified uropathogen≥10^3 colony forming units per milliliter (CFU/mL)) and antimicrobial susceptibilities reported for the dominant species. The colony count cutoff of ≥10^3 CFU/mL was used as it has been noted that low thresholds have appropriate diagnostic value for women with symptoms of a UTI.^5, 17, 18 The Northwestern Medicine Institutional Review Board approved this study (STU00207763).
All specimen collection and testing were done uniformly in accordance with Northwestern Medicine Guidelines. Isolation, colony count and identification testing were performed using Vitek 2 cards (bioMérieux).
For the 2011-2017 patients, outcomes of interest were uropathogen resistance (defined as resistant or intermediate susceptibility) to SXT, NIT and CIP. Covariates were patient demographics (age, race and patient's place of residence (ZIP code)) antimicrobial prescriptions within the past two years, diagnosis codes associated with current and past encounters, past urine culture results and department to which they presented. Risk factors were compared between patients who had resistant and sensitive cultures using two-sample t-tests (continuous variables) and chi-squared tests (categorical variables). Multivariate logistic regression models were used to investigate the association between risk factors and resistant cultures. Odds ratios (OR) were derived from these models to determine the probability of having a resistant culture with those factors.
The algorithms developed using the above-described cohort were then tested on the 2018 cohort. […] All analyses were done using R (version 3.5.2).

[4] = tested on: uropathogen; test: Urine culture antimicrobial susceptibility (Vitek 2), outpatients with complicated UTI; assay type: cell-based; conditions: for Overall prevalence of resistance: complicated UTI outpatients, 2012-2018, 2,286 cultures (>=10^3 CFU/mL), resistant or intermediate susceptibility; for proportion of patients resistant: complicated UTI, 2017-2018 testing cohort, 646 patients, Chicago ZIP code
Description: Materials and Methods: We performed a retrospective, single-center, cross-sectional study of 2,286 outpatients with a diagnosed complicated UTI from 2012-2018. For patients with confirmed UTI (≥10^3 CFU/mL) with antimicrobial sensitivities, univariate analyses and multivariable regression models were used to determine odds ratios for predicting resistance to SXT, NIT, CIP, CF-1, and CF-3 for the 2012-2016 data. Antimicrobial choice algorithms were created using 2012-2016 results and tested on 2017-2018 data.
This study was approved and performed in accordance with the Northwestern Medicine Institutional Review Board (STU00207763). This is a retrospective cross-sectional study of patients aged 18 or older that submitted urine cultures as outpatients from 2012 to 2018 at any Northwestern Medicine site, which encompasses the greater Chicago area. Data were obtained from the Northwestern Medicine Enterprise Data Warehouse, which is a data integration warehouse designed for research and clinical operations. […] Patients and cultures were included only if they were linked to any ICD 9 or 10 diagnosis code in the previous two years that would have been associated with a complicated UTI^6. Patients were included exactly once based on their most recent culture, and all prior culture data were used as covariates. […] Cultures were included in analysis if positive (identified uropathogen≥10^3 colony forming units per milliliter (CFU/mL)) and antimicrobial susceptibilities were reported for the dominant species. All specimen collection and testing were done uniformly in accordance with Northwestern Medicine Guidelines. Isolation, colony count and identification testing were performed using Vitek 2 cards (bioMérieux).
For the 2012 to 2016 patients, outcomes of interest were uropathogen resistance (defined as resistant or intermediate susceptibility) to trimethoprim-sulfamethoxazole (SXT), ciprofloxacin (CIP), nitrofurantoin (NIT), first-generation cephalosporin (CF-1) and third-generation cephalosporin (CF-3). The resistance prevalence was also stratified by Chicago ZIP code for each antimicrobial.
The algorithms developed using the above-described cohort were then tested on the 2017-2018 cohort. […] Also, the predictive value of time between cultures and uropathogen concurrence between cultures was examined in this cohort^10,17. All analyses were done using R (version 3.5.2).

Compound | resistance for community acquired UTIs, both uncomplicated and complicated [1] [%] | Overall prevalence of resistance [2] [%] | Overall prevalence of resistance [3] [%] | proportion of patients resistant [3] [%] | resistance, complicated UTI ([4]; 2018, community acquired) [%] | Overall prevalence of resistance [4] [%] | proportion of patients resistant [4] [%] | proportion with culture susceptible, theoretical scenario of all patients receiving the drug [3] [%] | proportion with culture susceptible, theoretical scenario of all patients being prescribed the drug [3] [%] | proportion with culture susceptible if everyone was prescribed the drug [3] [%]
O=C(O)c1cn(C2CC2)c2cc(N3CCNCC3)c(F)cc2c1=O [CIP, ciprofloxacin] | 11.2 | 25 | 10.3 | 10.7 | 16.2 | 19.4 | 18.4 |  |  | 
O=C1CN(/N=C/c2ccc([N+](=O)[O-])o2)C(=O)N1 [NIT, nitrofurantoin] |  |  | 12.1 | 10.0 |  | 18.9 | 18.1 | 93.8 | 89.2 | 90.0
trimethoprim-sulfamethoxazole [SXT] |  |  | 19.4 | 22.0 |  | 25.5 | 25.9 | 72.1 | 79.3 | 78.0
